This is an account of results in US8883504B2, “Cell differentiation suppressing agent, method of culturing cells using the same, culture solution, and cultured cell line” (Asahi Kasei Kabushiki Kaisha, priority 2003, dated 2014).

In assay [1] the test system is cynomolgus monkey ES cells. Briefly: ES cell differentiation inhibition assay 6, alkaline phosphatase staining. The format is cell-based. As to conditions: for proportion of number of alkaline phosphatase stained colony to number of the total colony, in comparison with DMSO (0.1%): Matrigel-coated dish, cultured for 2 days, FIG. 15. The protocol: As the medium for culturing cynomolgus monkey ES cells, DME/F-12, 1:1 (SIGMA D6421) was added with respective factors in the final concentration as presented below to prepare a cynomolgus monkey ES cell culture medium: 20% knockout serum replacement: KSR (Invitrogen Corp. made, 10828-028), 1× nonessential amino acids (SIGMA M7145), 2 mM L-Glutamine (SIGMA G7513), 1 mM sodium pyruvate (SIGMA S8636), 1× penicillin/streptomycin solution (SIGMA P0781). The culture medium for a mouse feeder cell used for culturing cynomolgus monkey ES cells was prepared by adding respective factors to DMEM (Invitrogen Corp. made, 11960-044) in the final concentration shown below: 10% bovine fetus serum (Invitrogen Corp. made), 2 mM L-glutamine (Sigma G7513), 1× penicillin/streptomycin solution (Sigma P0781).
Gelatin (SIGMA Corp. made, Type A: from porcine ESkin, G2500) was dissolved in distilled water in 0.1% concentration, and 5 mL of the thus prepared 0.1% sterilized aqueous gelatin solution was added in a 6 cm-diameter cell culture dish, and then left stand at 37° C. for 30 minutes or longer. The aqueous gelatin solution was removed, and 2×10^6 mouse embryonic primary culture cell (Invitrogen Corp. made, YE9284400) treated with mitomycin, C (Kyouwa Hakkou Corp. made) was seeded and cultured by using the culture medium for the feeder cell as described above at 37° C. in 5% CO2 incubator (Tabai Espec Corp. made) for 5 hours or longer. The cynomolgus monkey ES cells (Tanabe Seiyaku, K.K. made) was seeded on mouse embryonic primary culture cell, and cultured and proliferated in 5 mL of cynomolgus monkey ES cell culture medium at 37° C. in 5% CO2 incubator for 3 days.
The cynomolgus monkey ES cells cultured by the method described in (1) culture of cynomolgus monkey ES cells as described above were washed with PBS and, then, a 0.1% collagenase solution (Wako Corp. made, 032-10534) dissolved in DMEM (Invitrogen Corp. made 11960-044), or a trypsin solution (prepared by mixing 10 mL of a 2.5% trypsin solution (Invitrogen Corp. made 15090-046), 20 mL of Knockout Serum Replacement (Invitrogen Corp. made 10828-028), 1 mL of a 100 mM CaCl2 aqueous solution and 69 mL of PBS) was added, and incubation was carried out at 37° C. for 5 minutes. 5 mL of the cynomolgus monkey ES cell culture medium was added, cell colonies were removed by using a small sized pipette and, then, dispersed, transferred to a 15 mL sterilized tube, and centrifuged at 1000 rpm for about 5 minutes by using the micro centrifuge (TOMY SEIKO made) to prepare pellets. The supernatant was removed, and then the cells were suspended again in 5 mL of the fresh ES cell culture medium to obtain the cynomolgus monkey ES cells. […]

The test system of the next assay is mouse ES cell. Briefly: Subculture of ES cells, alkaline phosphatase quantified by colony assay. The format is cell-based. The protocol:
For the ES cells prepared by the method described in (3) preparation of the mouse ES cell of Example 1, 3×10^5 cells were seeded on a 6 cm-diameter cell culture dish coated previously with a 0.1% aqueous gelatin solution to make 4.5 mL of the ES cell assay medium. 0.5 mL of the differentiation inhibiting agent (A to F and a to o) of the present invention, which was dissolved in dimethylsulfoxide (DMSO) or culture medium, or their mixture to make 10 to 40 μg/mL per each dish, or 10^4 units/mL of ESGRO was added. The final concentration of DMSO in the culture medium was 0.1% or lower. As the control, only DMSO was made the final concentration in 0.1% by adding 0.5 mL of a 1% concentration solution diluted with the medium. Culturing was conducted at 37° C. in 5% CO2 incubator for 7 to 30 days. The medium was replaced every day, and the cells were passaged to make 3×10^5 cells/dish for every 2 to 3 days.
The alkaline phosphatase activity of the ES cells cultured for 7 or 30 days by using the differentiation inhibiting agents of the present invention was quantified by applying colony assay. […] The absorbance at 405 nm (O.D.405) and absorbance at 690 nm (O.D.690) of the solution were measured by using the spectrophotometer (Molecular Devices Corp. made, type: SPECTRA MAX190), and the value calculated from O.D.405-O.D.690 was determined as the alkaline phosphatase activity.

Regarding `CC(=O)c1ccc(/N=N/C(C(N)=O)=C2/NC(C)(C)Cc3ccccc32)cc1` [compound B, 2-(4-acetyl-phenylazo)-2-(3,3-dimethyl-3,4-dihydro-2H-isoquinoline-1-ylidene)-acetamide], the “proportion of number of alkaline phosphatase stained colony to number of the total colony, in comparison with DMSO (0.1%)” value in assay [1] is “significantly higher proportion of colonies stained with alkaline phosphatase”. For the same molecule, the “alkaline phosphatase activity of subcultured ES cells in comparison with ES cells cultured by using DMSO (0.1%)” value with mouse ES cell (subcultured for 30 days by adding the compound, FIG. 13) is given as “increased significantly”.
Take `COc1ccc(N=NC(C(N)=O)=C2NC(C)(C)Cc3ccccc32)cc1` [F, 2-(3,3-dimethyl-3,4-dihydro-2H-isoquinoline-1-ylidene)-2-(4-methoxy-phenylazo)-acetamide]: the “alkaline phosphatase staining of subcultured cells in comparison with DMSO” value in assay [1] (3rd day after subculture after 3-day culture, FIG. 16) is given as “stained significantly”. Besides, the “proportion of number of alkaline phosphatase stained colony to number of the total colony, in comparison with DMSO (0.1%)” value in assay [1] was “significantly higher proportion of colonies stained with alkaline phosphatase”. Moreover, the “effect on alkaline phosphatase staining in the presence of 6-bromoindirubin-3-oxime” value in assay [1] (subcultured, in the presence of 6-bromoindirubin-3-oxime, FIG. 16) is reported as “reinforced”. In addition, in the assay with mouse ES cell (subcultured in the medium without serum for 7 days by adding the compound, FIG. 14), the “alkaline phosphatase activity of subcultured ES cells in comparison with ES cells cultured by using DMSO (0.1%)” value is recorded as “increased significantly”.
